The data set is described as follows: Pharmacokinetics after intravenous injection (plasma, bile, urine). Format: in vivo, rat. The following applies: for half-life: iv, 10 mg/kg. The method, then: Male SD rats (aged 8–9 weeks, weighing 250–300 g) were obtained from Samtako Bio Korea, Inc. (Osan, Korea). The rats were acclimatized for 1 week in a temperature-controlled room (23 ± 2 °C) with a 12-h illumination cycle. Food and water were given ad libitum. All animal procedures were approved by the Animal Care and Use Committee of the Kyungpook National University (No. 2015-0064). The rats were fasted for at least 12 h before the oral administration of drugs.
The femoral artery, femoral vein, and bile duct were cannulated with polyethylene tubes (PE-50 and PE-10; Jungdo, Seoul, Korea) under light anesthesia with isoflurane.
For intravenous (IV) dosing, Jaspine B was dissolved in a vehicle containing DMSO: PEG400: saline (2:4:4, v/v/v) and was IV-injected via the femoral vein at 10 mg/kg (vehicle volume, 1 mL/kg). Blood samples were collected from the femoral artery at 0, 0.083, 0.167, 0.25, 0.5, 1, 2, 4, 6, 8, and 12 h following the IV administration of Jaspine B. Bile and urine samples were collected every 2 h for a total of 12 h. After centrifugation of blood samples at 13,200 rpm for 10 min, aliquots of 50 μL of plasma, bile, and urine were stored at −80 °C until the analysis of Jaspine B.
Aliquots (50 μL) of plasma, bile, feces homogenates, and urine samples were added to 250 μL of acetonitrile containing 0.5 ng/mL of berberine (an internal standard). After vortexing for 10 min and centrifugation at 13,200 rpm for 5 min, an aliquot (2 μL) of the supernatant was injected directly into the LC-MS/MS system. For the analysis of plasma concentration, the standard curve range was 25–5000 ng/mL and the concentrations of quality control (QC) samples were 75, 500, and 3000 ng/mL, as described previously. Concentrations of Jaspine B in urine, bile, and feces homogenates were 5–300 ng/mL, 20–5000 ng/mL, and 20–5000 ng/mL, respectively. The concentrations of QC samples were 15, 100, and 300 ng/mL for urine samples and 75, 500, and 3000 ng/mL for bile and feces homogenates.
Pharmacokinetic parameters were determined using a non-compartmental analysis (WinNonlin® 2.0; Pharsight, Mountain View, CA, USA). Maximum plasma concentration (Cmax) and time to reach Cmax (Tmax) values were obtained from plasma concentration-time curves. The area under the plasma concentration–time curve from zero to infinity (AUC) was calculated using the trapezoidal-extrapolation method. For extrapolation, the area from the last data point to infinity was estimated by dividing the […].
Total systemic clearance (CLtotal) was calculated by dividing IV dose by plasma AUC and the apparent volume of distribution at steady-state (Vss) was calculated by multiplying mean residence time (MRT) by CLtotal.

Where [1] appears, read: male, Sprague-Dawley, rat plasma, IV 10 mg/kg.

Read-outs that look alike come from different tables or passages of the source.

For the compound `CCCCCCCCCCCCCC[C@@H]1OC[C@H](N)[C@@H]1O` [Jaspine B], the clearance (male, Sprague-Dawley, plasma, rat, IV 10 mg/kg, read-out: CLtotal) was determined as 98.3 ± 7.7 mL/min/kg. Moreover, the Vd (male, Sprague-Dawley, plasma, rat, IV 10 mg/kg, read-out: Vss) turned out to be 21.2 ± 2.6 L/kg. Moreover, under “male, Sprague-Dawley, rat, plasma, rat plasma, distribution phase, read-out: distribution half-life (converted)”, the half-life is 84 min. The half-life (male, Sprague-Dawley, rat, plasma, rat plasma, read-out: T1/2 (terminal half-life) (converted)) was 402 ± 96 min. In addition, under setting [1], the AUC(0-inf) (usually total exposure, with the tail of the curve extrapolated) worked out at 1700 ± 137 ng·h/mL and the MRT (as a rule, a mean duration of stay, worked out from the concentration-time curve) worked out at 3.6 ± 0.5 h. For the same compound, the AUC(0-t) (male, Sprague-Dawley, rat plasma, IV 10 mg/kg, read-out: AUC12h) stood at 1290 ± 166 ng·h/mL. In addition, where the note is “rat bile, IV 10 mg/kg, 0-12 h”, the Xbile is 2.4 ± 0.8 % of dose. Besides, the Xurine (rat urine, IV 10 mg/kg, 0-12 h) is recorded as 0.4 ± 0.2 % of dose. For the setting “rat, IV 10 mg/kg”, the CLbile was found to be 3.1 ± 0.6 mL/min/kg; the CLurine was found to be 0.5 ± 0.3 mL/min/kg; the “contribution of CLbile and CLurine to CLtotal” value was “about 4%”.

For the origin of these results see PMC5618418, “Pharmacokinetics of Jaspine B and Enhancement of Intestinal Absorption of Jaspine B in the Presence of Bile Acid in Rats” (Marine Drugs, 2017).
